According to patent US11484598B1, “Pleuromulin rhein ester with anti-drug resistant bacteria activity and a method of preparing the same” (XI'AN KANGYUANSHENG BIOMEDICAL TECHNOLOGY CO., LTD., priority 2021, dated 2022):
Values after ≈ are worked out from the molar mass of the structure shown.

How the values were obtained:
Format in all cases: cell-based
[1] = system: multi-drug-resistant Pseudomonas aeruginosa MDR-PA 18-126; assay: MIC by microbroth dilution method, MDR-PA 18-126; settings: for Minimum bacteriostatic concentration: strain MDR-PA 18-126, 37° C., 20-22 hours
Procedure: (§1) The minimal inhibitory concentration (MIC) of the compounds as determined by microbroth dilution method was measured with ceftazidime and vancomycin as positive control.
(§2) The experimental strains included drug-resistant gram-positive bacteria: methicillin-resistant Staphylococcus aureus MRSA 18-575; drug-resistant gram-negative bacteria: multi-drug-resistant Pseudomonas aeruginosa MDR-PA 18-126, 18-756, Carbapenem-resistant Acinetobacter baumannii CR-AB 18-184, 18-560. The experimental strains were all donated by Huashan Hospital Affiliated to Fudan University (Fudan University Antibiotic Research Institute), and used after being identified by conventional methods.
(§3) Preparation of MHB medium: 20.0 g NMB medium was added to 1 L distilled water, boiled until completely dissolved, packed in conical bottles and sterilized at 121° C. for 15 min.
(§4) The experimental strain was cultured to the logarithmic growth phase: under aseptic condition, the experimental strain was inoculated into 100 mL NMB medium and incubated in a constant temperature and humidity incubator at 37° C. for 20-22 hours.
(§5) Preparation of storage solution: weighing the sample to be tested, dissolving it with 1% DMSO solution, preparing a storage solution with a concentration of 2560 μg/mL, weighing a positive reference substance, dissolving it with aseptic distilled water, and configuring a stock solution with a concentration of 2560 μg/mL.
(§6) Preparation of bacterial suspension: under aseptic condition, the experimental strains cultured to logarithmic growth phase were adjusted to 0.5 MCF turbidity standard with MHB medium and diluted according to 1:10, and the bacterial suspension with concentration of 10^6 CFU/mL was prepared for standby.
(§7) Stock solution dilution and inoculation of experimental strains: under aseptic conditions, diluting the stock solution to a solution of 256 μg/mL, taking a sterile 96-well plate, adding 100 μL of MHB medium to each well except for the first and second wells; adding 100 μL of positive control solution to the first well, and adding 100 μL of compound sample solution to the second and third wells; mixing the sample solution in the 3 wells with the medium, and then pipetting 100 μL to the 4th well, and then pipetting 100 μL to the 5th well after mixing, and then diluting to the 9th well in a series of times, and drawing 100 μL from the 9th well and discard, the 10th well is a growth control without drugs; then, adding 100 μL of the above-prepared bacterial suspension to each well to make the final bacterial concentration of each well 5×10^5 CFU/mL; the positive control concentration was 128 μg/mL, the concentrations of the sample solution were 128, 64, 32, 16, 8, 4, 2, 1 μg/mL.
(§8) Incubation: covering the 96-well plate inoculated with the experimental strains, and incubating in a constant temperature and humidity box at 37° C. for 20-22 hours.

[2] = system: Carbapenem-resistant Acinetobacter baumannii CR-AB 18-560; assay: MIC by microbroth dilution method, CR-AB 18-560; settings: strain CR-AB 18-560; 37° C., 20-22 hours
Procedure: as §1, §2, §3, §4, §5, §6
as §7, with “μg/mL. […]” for “μg/mL.”

[3] = system: methicillin-resistant Staphylococcus aureus MRSA 18-575; assay: MIC by microbroth dilution method, MRSA 18-575; settings: for Minimum bacteriostatic concentration: strain MRSA 18-575, 37° C., 20-22 hours
Procedure: as §1, §2, §3, §4, §5, §6, §7, §8

[4] = system: Carbapenem-resistant Acinetobacter baumannii CR-AB 18-184; assay: MIC by microbroth dilution method, CR-AB 18-184; settings: for Minimum bacteriostatic concentration: strain CR-AB 18-184, 37° C., 20-22 hours
Procedure: as §1, §2, §3, §4, §5, §6, §7, §8

[5] = system: multi-drug-resistant Pseudomonas aeruginosa MDR-PA 18-756; assay: MIC by microbroth dilution method, MDR-PA 18-756; settings: strain MDR-PA 18-756; 37° C., 20-22 hours
Procedure: as §1, §2, §3, §4, §5, §6
as §7, with “μg/mL. […]” for “μg/mL.”

drug-resistant bacteria = assay: Antibacterial activity test, summary over all experimental strains; settings: text summary of FIG. 1-5 and Table 1
Procedure: as §1, §2, §3
The experimental strain was cultured to the logarithmic growth phase: under aseptic condition, the experimental strain was inoculated into 100 mL NMB medium and incubated in a constant temperature and humidity incubator at 37° C. for 20-22 hours. […]

MIC ([1]; Pseudomonas aeruginosa, MDR-PA, strain number not stated (64 matches 18-126))	MIC ([3]; Staphylococcus aureus, MRSA)	MIC ([4]; Acinetobacter baumannii, CR-AB, strain number not stated (64 matches 18-184))	Structure (SMILES)	Minimum bacteriostatic concentration [1]	Minimum bacteriostatic concentration [2]	Minimum bacteriostatic concentration [3]	Minimum bacteriostatic concentration [4]	Minimum bacteriostatic concentration [5]	inhibitory effect on drug-resistant bacteria (drug-resistant bacteria)
–	–	–	CC(C)(O/N=C(\C(=O)N[C@@H]1C(=O)N2C(C(=O)[O-])=C(C[n+]3ccccc3)CS[C@H]12)c1csc(N)n1)C(=O)O [Ceftazidime]	128 µg/mL	128 µg/mL	128 µg/mL	128 µg/mL	128 µg/mL	–
–	–	–	CN[C@H](CC(C)C)C(=O)N[C@H]1C(=O)N[C@@H](CC(N)=O)C(=O)N[C@H]2C(=O)N[C@H]3C(=O)N[C@H](C(=O)N[C@H](C(=O)O)c4cc(O)cc(O)c4-c4cc3ccc4O)[C@H](O)c3ccc(c(Cl)c3)Oc3cc2cc(c3O[C@@H]2O[C@H](CO)[C@@H](O)[C@H](O)[C@H]2O[C@H]2C[C@](C)(N)[C@H](O)[C@H](C)O2)Oc2ccc(cc2Cl)[C@H]1O [Vancomycin]	–	–	512 µg/mL	–	–	–
64 µg/mL (≈ 99.3 µM)	64 µg/mL (≈ 99.3 µM)	64 µg/mL (≈ 99.3 µM)	C=C[C@@]1(C)C[C@H](OC(=O)COC(=O)c2cc(O)c3c(c2)C(=O)c2cccc(O)c2C3=O)[C@]2(C)C3C(=O)CC[C@]3(CC[C@@H]2C)[C@H](C)[C@H]1O (some centres unmarked) [Pleuromulin rhein ester]	64 µg/mL	>128 µg/mL	64 µg/mL	64 µg/mL	>128 µg/mL	–
–	–	–	O=C(O)c1cc(O)c2c(c1)C(=O)c1cccc(O)c1C2=O [Rhein]	>128 µg/mL	>128 µg/mL	>128 µg/mL	>128 µg/mL	>128 µg/mL	no inhibitory effect
–	–	–	C=C[C@]1(C)C[C@@H](OC(=O)CO)[C@]2(C)[C@H](C)CC[C@]3(CCC(=O)[C@H]32)[C@@H](C)[C@@H]1O [Pleuromulin]	>128 µg/mL	>128 µg/mL	>128 µg/mL	>128 µg/mL	>128 µg/mL	no inhibitory effect
